Results reported in patent publication US8609413B2, “Neurons, astrocytes and oligodendrocytes differentiated from a mammalian pluripotent or neural stem cells exposed to a pyridine deriviative” (Research Development Foundation, priority 2007, dated 2013).
Entries after “also recorded” stand apart in the source; their conditions may differ.

Legend:
CGR8 mouse ES cells = test: Secondary screening assay: neuronal differentiation of mouse ES cells, total neurite outgrowth; assay type: cell-based; conditions: 5 days with compound in SR medium, then 4 days N2 medium without compound; vs control cells
Protocol: To perform the secondary screening assay, neuronal differentiation of CGR8 cells was carried out in SR medium (DMEM high glucose supplemented with 15% KO serum (Gibco), non-essential amino acids, penicillin and streptomycin). Cells were plated at 10^5 cells per 10 cm cell culture dish and maintained is SR medium for 5 days with compounds found in the primary screen. Cells were subsequently dissociated and replated at 4×10^4 cells/cm^2 in N2 medium (DMEM high glucose, N2 supplement, 10 ng/ml basic fibroblast growth factor, penicillin and streptomycin) and cultured for four additional days without compound addition. Immunostaining quantification. Immunostaining and nuclear staining quantifications were performed using the MetaXpress software (Molecular devices). Total neurite outgrowth was quantified using the neurite outgrowth analysis module, and total cell numbers were quantified with the count nuclei analysis module. For further studies, 32 compounds were selected with high Fluc/Rluc ratio. A dose-response analysis of Fluc/Rluc ratio was performed in the same conditions as used for the primary screen, using concentrations ranging from 100 nM to 100 μM. […] The amounts of neurons were quantified by calculating total neurite outgrowth identified by β3-tubulin immunoreactivity using an automated imaging system (see Methods above).

H1 human ES cells = test: Neuronal differentiation of human ES cells, differentiation protocol 2 (clinical grade protocol); assay type: cell-based
Protocol: Undifferentiated human H1 ES cells were cultured on irradiated mouse embryonic fibroblasts (MEF). To carry out neuronal differentiation, ES cells were mechanically dissociated into small aggregates (50-300 cells) and cultured in suspension on low-attachment six-well plates. For the first 4 days, the cells were cultured in neuronal induction medium (DMEM F-12 (Gibco), N2 supplement (Gibco), penicillin and streptomycin (Gibco), phenazopyridine 3:M). Then the medium was changed to simple neuronal proliferation medium (DMEM F-12, N2 supplement, 20 ng/ml human recombinant bFGF, penicillin and streptomycin, phenazopyridine 3:M) for 2 additional days. Subsequently, 15-20 6-day old cell aggregates were plated on polyornithine/laminin-coated six-well plates and maintained in simple neuronal proliferation medium for 7 days. Cells were then mechanically dissociated and replated in N2 medium (DMEM high glucose (Gibco), 10 ng/ml human recombinant bFGF (Gibco), N2 supplement (Gibco), penicillin and streptomycin (Gibco)) at a density of 20,000 cells per cm^2 on polyornithine/laminin-coated six-well plate. Cells were passaged when they reached 80-90% confluency, and were maintained in the same culture conditions for 2 additional weeks. Stock phenazopyridine (Microsource Discovery Inc.) was prepared by diluting phenazopyridine powder in DMSO (Sigma-Aldrich) at a concentration of 6 mM. The stock solution was diluted at 1:2000 in cell culture media to obtain a final concentration of 3:M Each of the components of the neuronal induction medium, the simple neuronal proliferation medium and the N2 medium can be replaced with clinical grade equivalents. Therefore, the foregoing procedure of carrying out neuronal differentiation is referred to herein as the “clinical grade protocol.”
The effects of phenazopyridine on ES cell differentiation were investigated using the clinical grade-compatible protocol. The first step involved generation of spheres of cells grown in suspension for 6 days, followed by replating on polyornithine/laminin coated plastic. One week later, cells were passaged at 2×10^4 cells/cm^2 on polyornithine/laminin coated plastic, and during the following two weeks cells were passaged when they reached 80-90% confluency. Cells were treated with either DMSO (1:2000) or with phenazopyridine (PAP) at 3:M with equivalent final DMSO concentration throughout the 4 week period.
Two different protocols were used to induce neuronal differentiation of human ES cells. In the first protocol, human ES cells were mechanically dissociated into small aggregates and plated on laminin/polyornithine coated six-well plates. Cells were cultured 2 weeks in human SR medium (DMEM F-12 supplemented with 15% knockout serum (Gibco), non-essential amino acids, penicillin and streptomycin), followed by 4 weeks in N2 medium. Compounds were added throughout these first 6 weeks. Subsequently, cells were mechanically dissociated and replated on polyornithine/laminin-coated 6 well plates. Throughout the text, this first differentiation protocol will be referred to as “differentiation protocol 1”. The second differentiation protocol was derived from previously described differentiation conditions (Nat et al., 2007). In the second differentiation protocol, undifferentiated human ES cells were mechanically dissociated into small aggregates and cultured in suspension on low-attachment six-well plates. For the first 4 days, they were cultured in neuronal induction medium (DMEM F-12, N2 supplement, penicillin and streptomycin), which was changed to simple neuronal proliferation medium (DMEM F-12, N2 supplement, 20 ng/ml bFGF, penicillin and streptomycin) for 2 additional days. Subsequently, aggregates were plated on polyornithine/laminin-coated six-well plates and maintained in simple neuronal proliferation medium for 7 days. Cells were then mechanically dissociated and replated in N2 medium at a density of 2×10^4 cells per cm^2 for two additional weeks.

[1] = 3 μM, four weeks of differentiation

Nc1ccc(/N=N/c2ccccc2)c(N)n1 [phenazopyridine]
total neurite outgrowth identified by β3-tubulin immunoreactivity (CGR8 mouse ES cells): increase of total neurite outgrowth as compared to control cells
dissociation after mechanical passaging (H1 human ES cells; 3 μM vs DMSO): could easily be dissociated into single cells
percentage of living single cells by trypan blue exclusion (survival of dissociated cells) (H1 human ES cells; 3 μM vs DMSO, at passaging at different time points): promotes survival of dissociated cells
sphere morphology after one week of differentiation (H1 human ES cells; 3 μM vs DMSO, phase contrast): No apparent difference; also recorded: morphologically indistinct
sphere morphology at two weeks of differentiation (H1 human ES cells; 3 μM vs DMSO, phase contrast): developed into big areas of monolayer surrounding the plated spheres; also recorded: developed bigger areas of monolayer at their periphery
neuronal marker phenotype by immunostaining (H1 human ES cells; 3 μM, after four weeks of differentiation): Virtually all cells were nestin, Sox 1 and vimentin-positive, expressed β3-tubulin and Pax6 at low levels, and were negative for musashi
cells nestin-positive with low levels of β3-tubulin (early neuronal precursors) (H1 human ES cells; [1]): approximately 98%
non-neural cells (nestin and β3-tubulin negative) or differentiated neurons (β3-tubulin only) (H1 human ES cells; [1]): no non-neural cells or differentiated neurons were observed
mitotic figures and PCNA-positive cells in monolayer area (H1 human ES cells; 3 μM, two weeks, vs DMSO): many mitotic figures and PCNA-positive cells
